Results on 1 molecule are retold here after US20250121000A1, “INHALABLE BICARBONATE COMPOSITIONS AND DELIVERY SYSTEMS THEREFOR” (Nebulize Performance Inc., priority 2023, published 2025).

Each structure is given as a SMILES string. Read-outs that look alike come from different tables or passages of the source.

The conditions of data set [1]: upwards of / over 20 grams, literature studies, cited from earlier work.
The conditions of data set [2]: for gastrointestinal discomfort or side effects / self-reported breathing difficulties (chest tightness, shortness of breath, respiratory difficulty) and nausea: inhaled nebulized 3.5% sodium bicarbonate; for self-reported breathing difficulties (chest tightness, shortness of breath, respiratory difficulty) and nausea: all participants. The protocol: A randomized, single-blinded, crossover design was used. Participants completed a repeated sprint exercise protocol to total exhaustion in an indoor facility after inhaling 20 mL of a 3.5% sodium bicarbonate solution (700 mg) dissolved in water or a placebo (pure water) prior to the sprint test. Participants inhaled the solutions through a commercially available nebulizer (Pari Vios Nebulizer System™) for 30 min while seated at rest over 5 bouts of 6 min (4 mL/bout) prior to completing the first sprint set and were required to breathe the same solution for 60 seconds in between each set (described below).
The order of placebo or bicarbonate was assigned with a numbering system of 1 and 2 respectively, where half of the participants were randomly assigned a 1-2 vs 2-1 order with each trial separated by one week. Following the last trial, participants were asked to guess the order of trials. […] Participants were also asked to describe any noticeably breathing difficulties including chest tightness, shortness of breath or any sign of respiratory difficulty, as well as nausea.

[3] abbreviates: inhaled 3.5% sodium bicarbonate, sets 1-4, p<0.05.
The mark [4] stands for this setting: participants that completed more than 4 sprint sets, non-significant trend.

For the molecule `O=C([O-])O.[Na+]` [sodium bicarbonate], the figures for the “faster sprint times after oral ingestion” value in data set [1] (listed as bicarbonate) and in data set [1] were ≤ 5% and < 5%, respectively. Besides, the “average improvement in sprint time vs placebo, first half of each set (shuttle sprints 1-3)” value in data set [2] (setting [3]) is given as 3.5%. Moreover, the “improvement in average sprint time vs placebo, sprints 4-6 of each set” value in data set [2] (setting [3]) stood at 4.5%. Also, the “decrease in average sprint time vs placebo, overall (sprints 1-6 of each set)” value in data set [2] (inhaled 20 mL of 3.5% sodium bicarbonate solution (700 mg) by nebulizer plus 60 s between sets, 4 sets of 6x40 m sprints, p<0.05) stood at 4.1%. For the same molecule, the “gastrointestinal discomfort or side effects” value is recorded as “no participants experienced any symptoms of gastrointestinal discomfort or side effects” in data set [2] and “without detrimental side effects” in data set [2] (listed as Nebulized bicarbonate). Further, the “self-reported breathing difficulties (chest tightness, shortness of breath, respiratory difficulty) and nausea” value in data set [2] is reported as “free of any such distress”; in data set [2] (listed as nebulized bicarbonate), “free of respiratory distress”. Also, in data set [2] (setting [4]), the “improvement in performance (faster time) in sprint set 5” value was found to be 5%. Moreover, the “improvement in performance (faster time) in sprint set 6” value in data set [2] (setting [4]) was determined as 7%.
